What all share (assay type): in vivo
Series [1] has as its system honeybees (Apis mellifera). Description: Bee contact toxicity. The settings on record: for Mortality: 1 μL of 10 × 10^4 mg A.I./L per bee. The method, then: (§1) The test bees were Italian bees (Apis mellifera), and the newly born adult worker bees (<24 h) were selected for drug drip treatment. Weigh 50 mg of test substance FLP and fully dissolve it in DMSO to obtain 10 × 10^4 mg A.I./L of stock liquid medicine; dissolve B4 fully in DMSO and fix the volume to a 1-ml volumetric flask to obtain 11.6 × 10^4 mg A.I./L stock solution.
Contact toxicity. 10 × 10^4 mg A.I./L of mother liquor was used as the test liquid, and 1 μL of the solution containing the tested drug was dripped onto the back of the front chest of bees by a micro-dropper. Then, bees were put into a beekeeping box and cultured in dark conditions at a temperature of 30 ± 1°C and relative humidity of 50%, with a 50% sucrose solution as food for 48 h. Taking the solvent drip bees without the drug to be tested as the blank control, the treatment group and the control group were set up with three replicates, and 10 bees were used in each replicate.
(§2) Statistical analysis. Using the statistical software SPSS16.0, the LD50 value and 95% confidence limit of the half lethal dose of the sample to bees were obtained by regression statistical analysis with the probit analysis method.

The next series has as its system Helicoverpa armigera. Nature of the series: Insecticidal activity against Helicoverpa armigera (soaking method).
For series [2], the system named is honeybees (Apis mellifera). Description: Bee acute oral toxicity. As to conditions: adult bees; time not stated. The procedure: as §1
Oral toxicity. Before the formal experiment, a pre-experiment was carried out. According to the formal experimental conditions, three to four dose groups were set at large intervals to observe the death of bees between 24 and 48 h and determine the linear range of the lethal effect of drugs on bees. According to the pre-test results, determine the concentration range of the formal test and set five to seven test dose groups. Starve bees for 2 h before being infected, and then eliminate bees that are dying or have abnormal behaviors; put 200 μL of test liquid medicine in the feeding tube, and after the liquid medicine is consumed (within 6 h), take out the feeder to measure the weight of the food that has not been consumed. Then, the bees were fed with sucrose solution without test samples. Cultivate in the dark. At the same time, feeding 50% sucrose solution as a blank control, the treatment group and the control group were set up with three replicates, and 20 bees were used in each replicate. According to the results of the pre-experiment, if the toxicity of the drug to bees is low, the upper limit dose of 100 μg a.i./bee is set for the limit test of bees, that is, when the tested substance reaches 100 μg a.i./bee, no bees die, so there is no need to continue the test. If the solubility of the test substance is less than 100 μg a. i./bee, the maximum solubility is adopted as the upper limit concentration. The test results were examined at 24 and 48 h, respectively, and the number of deaths and poisoning symptoms were recorded. The standard of death is touching the bee's body, and when it can't crawl, it is judged as death.
as §2

The next series has as its system Plutella xylostella. Description: Insecticidal activity against Plutella xylostella (soaking method).
The next series deals with Chilo suppressalis. Nature of the series: Insecticidal activity against Chilo suppressalis (soaking method). As to conditions: 96 h, read-out: Mortality rate (%) C. suppressalis.
The test system of the next series is Aphis craccivora. Nature of the series: Insecticidal activity against Aphis craccivora (Potter spray tower). As to conditions: 24 h, read-out: Mortality rate (%) A. craccivora.
For another series, the system named is Nilaparvata lugens. Description: Insecticidal activity against Nilaparvata lugens (Potter spray tower). The settings on record: 24 h, read-out: Mortality rate (%) N. lugens.
Setting [3] is: Plutella xylostella, 48 h, read-out: Mortality rate (%) P. xylostella.

Several values for one entry are separate records, joined by “and”; a condition that tells them apart may be missing. Equal values may be shown once.

By mortality is commonly meant the share of the test organisms that died.

In series [1] (Contact toxicity, 24 h), `O=C(N=c1ccccn1Cc1ccc(Cl)nc1)C(F)(F)F` [FLP, flupyrimin] returned an LD50 of more than 11.0 μg a.i./bee. The Toxicity level result is on record as “Low toxicity” in series [1] (Contact toxicity, 24 h) and “Low toxicity” in series [1] (Contact toxicity, 48 h). The Mortality is 12 and 9 in series [1] (Contact toxicity, 24 h); 13 and 20 in series [1] (Contact toxicity, 48 h). The molecule also gave an LD50 contact toxicity in series [1] (adult bees, time not stated) of more than 11.0 μg a.i./bee. The “Mortality rate (%) H. armigera” value in the series on Helicoverpa armigera (400 μg/mL, 2nd instar larvae, counted 2 days later) is “inactive”. Moreover, the mortality at 400 µg/mL with Helicoverpa armigera (Helicoverpa armigera, 48 h, read-out: Mortality rate (%) H. armigera) is 0%; with Plutella xylostella (setting [3]), 100%; in the series with Chilo suppressalis it was 100%; in the series on Aphis craccivora, 100%; with Nilaparvata lugens it was 100%. In addition, the LD50 oral toxicity in series [2] was more than 11.0 μg a.i./bee. The “Mortality rate (%) P. xylostella” value with Plutella xylostella (25 μg/mL, 2nd instar larvae, counted 2 days later) is on record as “no insecticidal activity”. In the series on Plutella xylostella (setting [3]), the mortality at 25 µg/mL stood at 0%. For the same molecule, the values for the mortality at 100 µg/mL in the series with Plutella xylostella (setting [3]), with Aphis craccivora and in the series with Nilaparvata lugens were 0%, 100% and 100%, respectively.

For the origin of these results see paper PMC9574050, “Design, synthesis, and insecticidal activity of a novel series of flupyrimin analogs bearing 1-aryl-1H-pyrazol-4-yl subunits” (Frontiers in Chemistry, 2022).
